The values below come from patent US4554287A, “Antihypertensive 7-[2-(dialkylamino)ethyl]-4-hydroxy-1,3-benzimidazol-2-ones” (Smithkline Beckman Corporation, priority 1984, dated 1985).

Experiment [1] addresses T1, D2 -receptors (Oryctolagus cuniculus, UniProt G1T1Q0).
T1 construct: perfused rabbit ear artery test; from tissue; host or cells: perfused rabbit ear artery (sympathetic nerve terminals)
The experiment can be described thus: perfused rabbit ear artery test for D2-agonist activity. The source says: In the perfused rabbit ear artery test for D2 -agonist activity [J. P. Hieble et al., Arch.

The test system of experiment [2] is D2 -receptors. The experiment can be described thus: D2-agonist activity (test not specified). The settings on record: presynaptic dopaminergic receptors on sympathetic nerve terminals. The source says:
Otherwise speaking, the main locus of action is at the presynaptic dopaminergic receptors or sympathetic nerve terminals which may also be called "D2 -receptors." Activation of the D2 -receptors on the sympathetic nerve terminals inhibits the release of norepinephrine, thereby inhibiting the increases in cardiac rate and the peripheral vasoconstriction resulting from stimulation of the sympathetic nervous system. These are beneficial cardiovascular actions in those conditions involving excessive or inappropriate levels of sympathetic nervous system stimulation.

SMILES strings stand for the structures. Like-named read-outs stand apart in the source and are kept apart here.

T1 sequence (G1T1Q0 1-443): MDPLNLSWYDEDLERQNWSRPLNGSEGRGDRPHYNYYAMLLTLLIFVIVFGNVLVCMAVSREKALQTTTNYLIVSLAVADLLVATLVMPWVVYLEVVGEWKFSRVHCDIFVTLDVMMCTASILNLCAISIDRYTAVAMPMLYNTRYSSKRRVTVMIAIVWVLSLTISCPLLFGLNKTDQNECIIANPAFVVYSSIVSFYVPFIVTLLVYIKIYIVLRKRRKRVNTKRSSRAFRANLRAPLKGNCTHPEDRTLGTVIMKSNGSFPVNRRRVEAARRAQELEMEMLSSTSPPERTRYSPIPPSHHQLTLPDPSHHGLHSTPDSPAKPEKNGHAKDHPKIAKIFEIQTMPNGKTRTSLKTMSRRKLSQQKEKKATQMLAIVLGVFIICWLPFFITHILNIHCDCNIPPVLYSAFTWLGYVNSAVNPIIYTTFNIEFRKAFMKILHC

A word on the EC50: it is the concentration at which the effect is half-maximal. Take `CCCN(CCC)CCc1ccc(O)c2[nH]c(=O)[nH]c12` [7-[2-(N,N-di-n-propylamino)ethyl]-4-hydroxy-1,3-benzimidazol-2-one]: on D2 -receptors [1] (perfused rabbit ear artery, D2 -agonist activity, read-out: EC50), the half-maximal effective concentration (EC50) is around 9 nM. The “D2 -agonist activity (in words)” value with D2 -receptors [2] is recorded as “peripheral D2 -agonists”. On D2 -receptors [1], `CCCN(CCC)CCc1ccc(O)c(O)c1` [N,N-di-n-propyldopamine, reference compound] showed an EC50 of 50 to 60 nM.
